# According to patent publication US20230096766A1, “AMINO ACID HAVING FUNCTIONAL GROUP CAPABLE OF INTERMOLECULAR HYDROGEN BONDING, PEPTIDE COMPOUND CONTAINING SAME AND METHOD FOR PRODUCTION THEREOF” (Chugai Seiyaku Kabushiki Kaisha, priority 2018, published 2023):
# *1 amine or outer side, *2 acyl side, *3 side chain or, on linkers, in order; H or OH if unused. Where a SMILES comes first, the peptide text is derived from it. Bridges are numbered along the chain shown (N, C = ends). [ ]: non-standard residue; d: D form. The star is where a group is joined. ξ: configuration not given here. X5 = O=C([C@H](CCC[C@@H]1CC(F)(F)CN1)N[*:1])[*:2]; X4 = O=C(C(CCc1noc(=O)[nH]1)N[*:1])[*:2]; Pro(4,4-F2)ψ(CH2) = FC1(F)CN[C@H](C*)C1; NMeF = CN[C@@H](Cc1ccccc1)C(=O)O; NMeGABA = CN(CCCC(=O)[*:2])[*:1]; NMeL = CN[C@@H](CC(C)C)C(=O)O; Butyl(3S-OH) = C[C@H](O)CC*; NMeV = CN[C@H](C(=O)O)C(C)C; ξIle = CC[C@H](C)C(N)C(=O)O; NMeAbu = CC[C@H](NC)C(=O)O; NMeA = CN[C@@H](C)C(=O)O; Piperidide = C1CCN(*)CC1; NBuGly = CCCCNCC(=O)O; Sar = CNCC(=O)O; tBu = CC(C)(C)*
# Assay: Membrane permeability test of cyclic peptides (Caco-2, modified/improved method of WO 2018/124162)
# Settings: human, Caco-2, Caco-2 (cm/sec), membrane permeability of cyclic peptides, Caco-2
row,SMILES,Papp [×10⁻⁶ cm/s]
1,CCCCN1CC(=O)N(C)[C@@H](CC(C)C)C(=O)N[C@H](C(=O)N2CCCCC2)CC(=O)N(C)[C@@H](C(C)C)C(=O)N[C@@H](CC(C)C)C(=O)N(C)[C@@H](CC(C)C)C(=O)N(C)[C@@H](Cc2ccccc2)C(=O)N[C@@H](COCC[C@H](C)O)C(=O)N(C)[C@@H](Cc2ccccc2)C(=O)N(C)[C@@H](C(C)C)C(=O)N[C@@H]([C@@H](C)O)C1=O [AP107] ([NMeV]L[NMeL][NMeF]S(Butyl(3S-OH))[NMeF][NMeV]T[NBuGly][NMeL]D-Piperidide; lactam N-11),0.93

# Same assay, conditions: human, Caco-2, Caco-2 (membrane permeability), Table 10, cyclic peptides containing Ser(S-4-F2-Pyrro-Me) (G) or Nva(2-R-4-F2-Pyrro) (H)
row,SMILES,Papp [×10⁻⁶ cm/s]
1,CCCCN1CC(=O)N(C)[C@@H](Cc2ccccc2)C(=O)N(C)[C@@H](CC(C)C)C(=O)N[C@@H](CCC[C@@H]2CC(F)(F)CN2)C(=O)N(C)[C@@H](CC(C)C)C(=O)N[C@H](C(=O)N2CCCCC2)CC(=O)N(C)CC(=O)N(C)[C@@H](CC(C)C)C(=O)N[C@@H](C(C)C)C(=O)N(C)[C@@H](CC(C)C)C(=O)N[C@@H]([C@@H](C)O)C1=O [Compound H07] ([Sar][NMeL]V[NMeL]T[NBuGly][NMeF][NMeL][X5][NMeL]D-Piperidide; lactam N-11),0.16
2,CC(C)C[C@@H]1NC(=O)[C@H](C)N(C)C(=O)C[C@@H](C(=O)N2CCCCC2)NC(=O)[C@H](CC(C)C)N(C)C(=O)CN(C)C(=O)[C@H](CCC[C@@H]2CC(F)(F)CN2)NC(=O)[C@H](CC(C)C)N(C)C(=O)[C@H](CC(C)C)N(C)C(=O)[C@H](CC(C)C)NC(=O)[C@H](Cc2ccccc2)N(C)C(=O)[C@H](C)N(C)C1=O [Compound H10] ([NMeA]L[NMeA][NMeF]L[NMeL][NMeL][X5][Sar][NMeL]D-Piperidide; lactam N-11),0.43
3,"CCCCN1CC(=O)N(C)[C@@H](CC(C)C)C(=O)N[C@@H](COC(C)(C)C)C(=O)N(C)[C@@H](Cc2ccccc2)C(=O)N(C)[C@@H](CC)C(=O)N[C@H](C(=O)N2CCCCC2)CC(=O)N[C@H](C)C(=O)N(C)[C@@H](CC)C(=O)N[C@@H](C(C)C)C(=O)N(C)[C@@H](CC(C)C)C(=O)N[C@@H](COC[C@@H]2CC(F)(F)CN2)C1=O [Compound G08] ([dA][NMeAbu]V[NMeL]S(Pro(4,4-F2)ψ(CH2))[NBuGly][NMeL]S(tBu)[NMeF][NMeAbu]D-Piperidide; lactam N-11)",1.3
4,"CCCCN1CC(=O)N(C)[C@@H](CC(C)C)C(=O)N[C@H](C(=O)N2CCCCC2)CC(=O)N(C)[C@@H](CC)C(=O)N[C@@H](CC(C)C)C(=O)N(C)[C@@H](CC(C)C)C(=O)N(C)[C@@H](Cc2ccccc2)C(=O)N[C@@H](COC[C@@H]2CC(F)(F)CN2)C(=O)N(C)[C@@H](CC)C(=O)N(C)[C@@H](CC(C)C)C(=O)N[C@@H]([C@@H](C)O)C1=O [Compound G04] ([NMeAbu]L[NMeL][NMeF]S(Pro(4,4-F2)ψ(CH2))[NMeAbu][NMeL]T[NBuGly][NMeL]D-Piperidide; lactam N-11)",1.8
5,CC(C)C[C@H]1C(=O)N[C@@H](C(C)C)C(=O)N(C)[C@@H](Cc2ccccc2)C(=O)N(C)[C@@H](C)C(=O)N[C@@H](COC(C)(C)C)C(=O)N(C)[C@@H](CC(C)C)C(=O)N[C@@H](CCC[C@@H]2CC(F)(F)CN2)C(=O)N(C)[C@@H](CC(C)C)C(=O)N(C)[C@@H](CC(C)C)C(=O)N[C@H](C(=O)N2CCCCC2)CC(=O)N(C)CCCC(=O)N1C [Compound H09] ([NMeGABA][NMeL]V[NMeF][NMeA]S(tBu)[NMeL][X5][NMeL][NMeL]D-Piperidide; lactam N-11),0.52
6,"CC[C@H]1C(=O)N[C@@H](COC(C)(C)C)C(=O)N(C)[C@@H](CC(C)C)C(=O)N[C@@H](COC[C@@H]2CC(F)(F)CN2)C(=O)N(C)[C@@H](CC(C)C)C(=O)N(C)[C@@H](CC(C)C)C(=O)N[C@H](C(=O)N2CCCCC2)CC(=O)N(C)CCCC(=O)N(C)[C@@H](CC(C)C)C(=O)N[C@@H](C(C)C)C(=O)N(C)[C@@H](Cc2ccccc2)C(=O)N1C [Compound G09] ([NMeGABA][NMeL]V[NMeF][NMeAbu]S(tBu)[NMeL]S(Pro(4,4-F2)ψ(CH2))[NMeL][NMeL]D-Piperidide; lactam N-11)",1.2
7,"CCCCN1CC(=O)N(C)[C@@H](Cc2ccccc2)C(=O)N(C)[C@@H](CC(C)C)C(=O)N[C@@H](COC[C@@H]2CC(F)(F)CN2)C(=O)N(C)[C@@H](CC(C)C)C(=O)N[C@H](C(=O)N2CCCCC2)CC(=O)N(C)CC(=O)N(C)[C@@H](CC(C)C)C(=O)NC([C@@H](C)CC)C(=O)N(C)[C@@H](CC(C)C)C(=O)N[C@@H]([C@@H](C)O)C1=O (stereo partly drawn) [Compound G07] ([Sar][NMeL][ξIle][NMeL]T[NBuGly][NMeF][NMeL]S(Pro(4,4-F2)ψ(CH2))[NMeL]D-Piperidide; lactam N-11)",0.57

# Same assay, conditions: human, Caco-2, Caco-2, Papp, membrane permeability; cyclic peptides comprising MeAbu(pip-4-F2), MeAbu(Mor), Ser(Et-2-Mor), MeAbu(pip-3-F2) or Abu(5-Oxo-Odz) (Table 29)
row,SMILES,Papp [×10⁻⁶ cm/s]
1,CCCCN1CC(=O)N(C)[C@@H](CC(C)C)C(=O)N[C@H](C(=O)N2CCCCC2)CC(=O)N(C)[C@@H](CC)C(=O)N[C@@H](CC(C)C)C(=O)N(C)[C@@H](CC(C)C)C(=O)N(C)[C@@H](Cc2ccccc2)C(=O)NC(CCc2noc(=O)[nH]2)C(=O)N(C)[C@@H](CC(C)C)C(=O)N(C)[C@@H](CC(C)C)C(=O)N[C@@H]([C@@H](C)O)C1=O (stereo partly drawn) [pd487] ([NMeAbu]L[NMeL][NMeF][X4][NMeL][NMeL]T[NBuGly][NMeL]D-Piperidide; lactam N-11),2.2
